Measured values taken from US8088805B2, “Inhibitors of histone deacetylase” (MethylGene Inc., priority 2004, dated 2012).

Legend:
[1] = tested on: SW48 colon cancer cells; assay: Human tumor xenograft in vivo, SW48; details: Mus musculus, 30 mg/kg ip, mice, read-out: % Inhibition (relative to vehicle control) SW48
Procedure: (§1) Eight to ten week old female BCD1 mice (Taconic Labs, Great Barrington, N.Y.) were injected subcutaneously in the flank area with 2×10^6 preconditioned HCT116 human colorectal carcinoma cells, SW48 colon cancer cells, and A549 lung cancer cells. Preconditioning of these cells was done by a minimum of three consecutive tumor transplantations in the same strain of nude mice. Subsequently, tumor fragments of approximately 30 mgs were excised and implanted subcutaneously in mice, in the left flank area, under Forene anesthesia (Abbott Labs, Geneva, Switzerland). When the tumors reached a mean volume of 100 mm^3, the mice were treated intraperitoneally by daily injection, with a solution of the histone deacetylase inhibitor in DMSO, at a starting dose of 10 mg/kg. The optimal dose of the HDAC inhibitor was established by dose response experiments according to standard protocols. Tumor volume was calculated every second day post infusion according to standard methods (e.g., Meyer et al., Int. J. Cancer 43: 851-856 (1989)).

[2] = tested on: HCT116 human colorectal carcinoma cells; assay: Human tumor xenograft in vivo, HCT116; details: Mus musculus, HCT-116; 30 mg/kg ip, mice; read-out: % Inhibition (relative to vehicle control) HCT116
Procedure: as §1

[3] = target: T1, cloned recombinant human HDAC-1 enzyme (Homo sapiens, UniProt Q13547); assay: HDAC-1 enzymatic inhibition, Assay 1 ([3H]-acetylated histone substrate); type: biochemical; details: Assay 1: [3H]-labeled acetylated histone substrate, recombinant hHDAC-1
T1 construct: made in house; host or cells: Baculovirus insect cell expression system
Procedure: Assay 1. HDAC inhibitors were screened against a cloned recombinant human HDAC-1 enzyme expressed and purified from a Baculovirus insect cell expression system. For deacetylase assays, 20,000 cpm of the [^3H]-metabolically labeled acetylated histone substrate (M. Yoshida et al., J. Biol. Chem. 265(28): 17174-17179 (1990)) was incubated with 30 μg of the cloned recombinant hHDAC-1 for 10 minutes at 37° C. The reaction was stopped by adding acetic acid (0.04 M, final concentration) and HCl (250 mM, final concentration). The mixture was extracted with ethyl acetate and the released [^3H]-acetic acid was quantified by scintillation counting. For inhibition studies, the enzyme was preincubated with compounds at 4° C. for 30 minutes prior to initiation of the enzymatic assay. IC50 values for HDAC enzyme inhibitors were determined by performing dose response curves with individual compounds and determining the concentration of inhibitor producing fifty percent of the maximal inhibition.
(§2) Assay 1 was used to measure HDAC activity of compounds 10c, 13e, 16d, 26b, 44, 47, 61a, 61b, 63, 134, 138, and 308. Assay 2 was used to measure HDAC activity of compounds 361, 366, 367, 368, 369, 370, 371, 372, 373, 374, 375, 376, 377, and 378. In Table 14, “a” indicates activity of ≦0.1 μM, “b” indicates activity of ≦1 μM, “c” indicates activity of ≦5 μM, and “d” indicates activity of >5 μm. For the H4-Ac T24 EC vs. MS-275 assay in Table 14, “u” indicates less than 1, “v” indicates 1, and “w” indicates greater than 1. For the H3 Ac t24 assay in Table 14, “x” indicates activity of ≦1 μM, “y” indicates activity of ≦10 μM, and “z” indicates activity of ≦20 μM.

[4] = tested on: HCT116 cells; assay: MTT assay; type: cell-based; details: Homo sapiens, HCT-116, 72 hours
Procedure: HCT116 cells (2000/well) were plated into 96-well tissue culture plates one day before compound treatment. Compounds at various concentrations were added to the cells. The cells were incubated for 72 hours at 37° C. in 5% CO2 incubator. MTT (3-[4,5-dimethylthiazol-2-yl]-2,5diphenyl tetrazolium bromide, Sigma) was added at a final concentration of 0.5 mg/ml and incubated with the cells for 4 hours before one volume of solubilization buffer (50% N,N-dimethylformamide, 20% SDS, pH 4.7) was added onto the cultured cells. After overnight incubation, solubilized dye was quantified by colorimetric reading at 570 nM using a reference at 630 nM using an MR700 plate reader (Dynatech Laboratories Inc.). OD values were converted to cell numbers according to a standard growth curve of the relevant cell line. The concentration which reduces cell numbers to 50% of that of solvent treated cells is determined as MTT IC50. In Table 14, “a” indicates activity of ≦0.1 μM, “b” indicates activity of ≦1 μM, and “c” indicates activity of ≦5 μM.

[5] = tested on: Histone H4 acetylation in T24 human bladder cancer cells; assay: Histone H4 acetylation in whole cells by immunoblots; type: cell-based; details: ratio of EC50 of compound to EC50 of control MS-275, 16 h
Procedure: T24 human bladder cancer cells growing in culture were incubated with HDAC inhibitors for 16 h. Histones were extracted from the cells after the culture period as described by M. Yoshida et al. (J. Biol. Chem. 265(28): 17174-17179 (1990)). […] of total histone protein was loaded onto SDS/PAGE and transferred to nitrocellulose membranes. Membranes were probed with polyclonal antibodies specific for acetylated histone H-4 (Upstate Biotech Inc.), followed by horse radish peroxidase conjugated secondary antibodies (Sigma). Enhanced Chemiluminescence (ECL) (Amersham) detection was performed using Kodak films (Eastman Kodak). Acetylated H-4 signal was quantified by densitometry. Data are presented as the ratio of the concentration effective for […] the acetylated H-4 signal by 50% (EC50) using the indicated compound of the invention to a control compound, MS-275. If the indicated ratio is 1, then the compound of the invention is as effective as the MS-275 control compound. […] Further information regarding the MS-275 compound can be found in Suzuki et al., J. Med. Chem. 1999, pp. 3001-3003.

[6] = target: Human HDAC-1 (Homo sapiens, UniProt Q13547); assay: HDAC-1 enzymatic inhibition, Assay 2 (Boc-Lys(Ac)-AMC, Fluor-de-Lys); type: biochemical; details: Assay 2: Boc-Lys(Ac)-AMC substrate, fluorescence; read-out: HDAC1 IC50
Procedure: Assay 2. The following protocol was also used to assay the compounds of the invention. In the assay, the buffer used was 25 mM HEPES, pH 8.0, 137 mM NaCl, 2.7 mM KCl, 1 mM MgCl2 and the substrate was Boc-Lys(Ac)-AMC in a 50 mM stock solution in DMSO. The enzyme stock solution was 4.08 μg/mL in buffer. The compounds were pre-incubated (2 μl in DMSO diluted to 13 μl in buffer for transfer to assay plate) with enzyme (20 μl of 4.08 μg/ml) for 10 minutes at room temperature (35 μl pre-incubation volume). The mixture was pre-incubated for 5 minutes at room temperature. The reaction was started by bringing the temperature to 37° C. and adding […] substrate. Total reaction volume was 50 μl. The reaction was stopped after 20 minutes by addition of 50 μl developer, prepared as directed by Biomol (Fluor-de-Lys developer, Cat. # KI-105). A plate was incubated in the dark for 10 minutes at room temperature before reading (λEx=360 nm, λEm=470 nm, Cutoff filter at 435 nm).
as §2

T1 sequence (Q13547 whole entry): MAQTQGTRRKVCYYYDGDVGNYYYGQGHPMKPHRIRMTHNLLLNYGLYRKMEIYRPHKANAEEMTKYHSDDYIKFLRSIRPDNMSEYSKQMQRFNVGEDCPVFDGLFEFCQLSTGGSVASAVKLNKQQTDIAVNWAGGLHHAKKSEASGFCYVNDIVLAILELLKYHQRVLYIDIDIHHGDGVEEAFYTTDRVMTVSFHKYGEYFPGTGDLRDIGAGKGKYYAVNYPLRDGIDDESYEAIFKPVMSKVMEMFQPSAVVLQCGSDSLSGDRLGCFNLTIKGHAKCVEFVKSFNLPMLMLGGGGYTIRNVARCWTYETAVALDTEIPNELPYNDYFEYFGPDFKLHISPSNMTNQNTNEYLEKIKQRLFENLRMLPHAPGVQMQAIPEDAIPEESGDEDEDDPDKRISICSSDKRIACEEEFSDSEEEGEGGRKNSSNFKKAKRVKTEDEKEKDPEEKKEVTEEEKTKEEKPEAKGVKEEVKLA
Human HDAC-1, sequence (Q13547 whole entry): as above

Row | Structure (SMILES) | inhibition in vivo at 30 mg/kg [1] | inhibition in vivo at 30 mg/kg [2] | IC50 [3] | IC50 [4] | H4-Ac T24 EC vs. MS-275 [5] | IC50 [6]
1 | COc1ccc(CCNc2ccnc(NCc3ccc(C(=O)Nc4ccccc4N)cc3)n2)cc1OC [10a, N-(2-Amino-phenyl)-4-({4-[2-(3,4-dimethoxy-phenyl)-ethylamino]-pyrimidin-2-ylamino}-methyl)-benzamide] | 23% | 16.1% |  |  |  | 
2 | COc1cccc(CCNc2ccnc(NCc3ccc(C(=O)Nc4ccccc4N)cc3)n2)c1 [10c, N-(2-Amino-phenyl)-4-({4-[2-(3-methoxy-phenyl)-ethylamino]-pyrimidin-2-ylamino}-methyl)-benzamide] |  |  | 1 to 5 µM | 0.1 to 1 µM | v (“v” indicates 1) | 
3 | Nc1ccccc1NC(=O)c1ccc(CNc2ncc(-c3cccnc3)cn2)cc1 [13e, N-(2-Amino-phenyl)-4-[(5-pyridin-3-yl-pyrimidin-2-ylamino)-methyl]-benzamide] |  |  | 1 to 5 µM | 0.1 to 1 µM | v (“v” indicates 1) | 
4 | Nc1ccccc1NC(=O)c1ccc(CNc2nccc(-c3ccc(F)c(F)c3)n2)cc1 [16d, N-(2-Amino-phenyl)-4-{[4-(3,4-difluoro-phenyl)-pyrimidin-2-ylamino]-methyl}-benzamide] |  |  | 0.1 to 1 µM | 0.1 to 1 µM | v (“v” indicates 1) | 
5 | CSc1nc(NCc2ccc(C(=O)Nc3ccccc3N)cc2)cc(-c2cccnc2)n1 [61a, N-(2-Amino-phenyl)-4-[(2-methylsulfanyl-6-pyridin-3-yl-pyrimidin-4-ylamino)-methyl]-benzamide] |  |  | 1 to 5 µM | ≤ 0.1 µM | v (“v” indicates 1) | 
6 | Nc1ccccc1NC(=O)c1ccc(CNc2cc(-c3cccnc3)ncn2)cc1 [61b, N-(2-Amino-phenyl)-4-[(6-pyridin-3-yl-pyrimidin-4-ylamino)-methyl]-benzamide] |  |  | 1 to 5 µM | ≤ 0.1 µM | u (“u” indicates less than 1) | 
7 | Nc1ccccc1NC(=O)c1ccc(CNc2nccc(-c3ccc(CN4CCOCC4)cc3)n2)cc1 [compound 44, N-(2-Amino-phenyl)-4-{[4-(4-morpholin-4-ylmethyl-phenyl)-pyrimidin-2-ylamino]-methyl}-benzamide] |  |  | 1 to 5 µM | ≤ 0.1 µM | v (“v” indicates 1) | 
8 | Nc1ccccc1NC(=O)c1ccc(CNc2ccnc(-c3cccnc3)n2)cc1 [compound 47, N-(2-Amino-phenyl)-4-[(2-pyridin-3-yl-pyrimidin-4-ylamino)-methyl]-benzamide] |  |  | 1 to 5 µM | 0.1 to 1 µM | u (“u” indicates less than 1) | 
9 | Nc1ccccc1NC(=O)c1ccc(CNc2cncc(-c3cccnc3)n2)cc1 [compound 63, N-(2-Amino-phenyl)-4-[(6-pyridin-3-yl-pyrazin-2-ylamino)-methyl]-benzamide] |  |  | 1 to 5 µM | 0.1 to 1 µM | v (“v” indicates 1) | 
10 | Nc1ccccc1NC(=O)c1ccc(CNc2nc3ccc(O)cc3s2)cc1 [compound 134, N-(2-Amino-phenyl)-4-[(6-hydroxy-benzothiazol-2-ylamino)-methyl]-benzamide] |  |  | 1 to 5 µM | 0.1 to 1 µM | u (“u” indicates less than 1) | 
11 | COc1cc(NCc2ccc3oc(C(=O)Nc4ccccc4N)cc3c2)cc(OC)c1OC [compound 308, 5-[(3,4,5-Trimethoxy-phenylamino)-methyl]-benzofuran-2-carboxylic acid (2-amino-phenyl)-amide] |  |  | 1 to 5 µM | 0.1 to 1 µM | w (“w” indicates greater than 1) | 
12 | Nc1ccccc1NC(=O)c1ccc(N2CC[C@@H](Oc3cccnc3)C2)cc1 [compound 368, (R)—N-(2-Aminophenyl)-4-(3-(pyridin-3-yloxy)pyrrolidin-1-yl)benzamide] |  |  |  | 0.1 to 1 µM |  | 0.1 to 1 µM
13 | Nc1ccccc1NC(=O)c1ccc(N2CC[C@@H](Nc3ccccc3)C2)cc1 [compound 370, (R)—N-(2-Aminophenyl)-4-(3-(phenylamino)pyrrolidin-1-yl)benzamide] |  |  |  | 1 to 5 µM |  | 1 to 5 µM
14 | Nc1ccccc1NC(=O)c1ccc(N2CC[C@H](Oc3ccccc3)C2)cc1 [compound 371, (S)—N-(2-Aminophenyl)-4-(3-phenoxypyrrolidin-1-yl)benzamide] |  |  |  | 0.1 to 1 µM |  | 0.1 to 1 µM
15 | COC(=O)c1ccc(O[C@H]2CCN(c3ccc(C(=O)Nc4ccccc4N)cc3)C2)cc1 [compound 372, (S)-Methyl-4-(1-(4-(2-aminophenylcarbamoyl)phenyl)pyrrolidin-3-yloxy)benzoate] |  |  |  | 0.1 to 1 µM |  | ≤ 0.1 µM
16 | Nc1ccccc1NC(=O)c1ccc(N2CC[C@H](Oc3ccc(C(=O)O)cc3)C2)cc1 [compound 373, (S)-4-(1-(4-(2-Aminophenylcarbamoyl)phenyl)pyrrolidin-3-yloxy)benzoic acid] |  |  |  | > 5 µM |  | 0.1 to 1 µM
17 | Nc1ccccc1NC(=O)c1ccc(N2CC[C@H](Oc3ccc(Oc4ccccc4)cc3)C2)cc1 [compound 376, (S)—N-(2-Aminophenyl)-4-(3-(4-phenoxyphenoxy)pyrrolidin-1-yl)benzamide] |  |  |  | 1 to 5 µM |  | 1 to 5 µM
18 | Nc1ccccc1NC(=O)c1ccc(N2CC[C@H](Oc3ccc([N+](=O)[O-])cc3)C2)cc1 [compound 377, (S)—N-(2-Aminophenyl)-4-(3-(4-nitrophenoxy)pyrrolidin-1-yl)benzamide] |  |  |  | 0.1 to 1 µM |  | 0.1 to 1 µM
